# From patent US20220184052A1, “COMPOSITION COMPRISING FEXOFENADINE” (Cellix Bio Private Limited, priority 2020, published 2022)
# Structures can show the parent of a compound that is named as a salt.
# Assay: Drug-excipient compatibility study, 40° C./75% RH-4 W (% degradants)
# Format: physicochemical
structure (smiles),measurement,setting,value
"CC(C)(C(=O)O)c1ccc(C(O)CCCN2CCC(C(O)(c3ccccc3)c3ccccc3)CC2)cc1 (stereo not shown) [API, Fexofenadine HCl]",% Total,40° C./75% RH-4 W,0.11%
same,Description,40° C./75% RH-4 W,Clear
same,% Total,Initial,0.09%
same,Description,Initial,Clear
